“And” between values parts separate entries of the source, which are not always exact repeats. Equal values may be shown once. Read-outs that look alike come from different tables or passages of the source.

The test system of experiment [1] is P. berghei blood stages. The note with it: Pb-infected mice, single oral 50 mg/kg dose 1 day PI, compared to untreated animals.
Experiment [2] concerns P. berghei liver stages. It counts as in vivo, Plasmodium berghei. Particulars: liver stage model, mice.
The subject of experiment [3] is Plasmodium cynomolgi. Particulars: rhesus monkeys; cited from earlier work.
For experiment [4], the system named is P. falciparum TM90-C2B. Particulars: RI = EC50(TM90-C2B)/EC50(W2); cited from earlier work.
The test system of experiment [5] is P. berghei liver stages. The note with it: read-out: liver stage activity; cited from earlier work.
Where [6] appears, read: single dose 50 mg/kg subcutaneous.

With `COC(=O)c1c[nH]c2cc(CN3CCN(c4ccc(C(F)(F)F)cc4)CC3)c(OC)cc2c1=O` [8ab, Methyl 6-Methoxy-4-oxo-7-((4-(4-(trifluoromethyl)phenyl)-piperazin-1-yl)methyl)-1,4-dihydroquinoline-3-carboxylate], the “% inhibition day 6 PI” value in experiment [1] is listed as “completely inhibited parasite growth”.

`Cc1[nH]c2cc(CN3CCN(c4ccc(F)cc4)CC3)ccc2c(=O)c1Br` [8an, 3-Bromo-7-((4-(4-Fluorophenyl)piperazin-1-yl)methyl)-2-methylquinolin-4(1H)-one]: the “% inhibition day 6 PI” value in experiment [1] is “completely inhibited parasite growth”.

On to `COC(=O)c1c[nH]c2cc(CN3CCN(c4ccccc4)CC3)ccc2c1=O` [8j, Methyl 4-Oxo-7-((4-phenylpiperazin-1-yl)methyl)-1,4-dihydroquinoline-3-carboxylate], for which the no. of cures in experiment [2] (single dose 25 mg/kg oral) is given as 2/5; in experiment [2] (single dose 50 mg/kg oral), 2/5; in experiment [2] (setting [6]), 3/5; in experiment [2] (single dose 100 mg/kg oral), 5/5.

For `COC(=O)c1c[nH]c2cc(CN3CCN(Cc4ccc(OC)cc4)CC3)ccc2c1=O` [8l, Methyl 7-((4-(4-Methoxybenzyl)piperazin-1-yl)methyl)-4-oxo-1,4-dihydroquinoline-3-carboxylate], the no. of cures is 0/5 in experiment [2] (single dose 25 mg/kg oral); 0/5 in experiment [2] (single dose 50 mg/kg oral); 0/5 in experiment [2] (setting [6]); “one of five and 1/5” in experiment [2] (single dose 100 mg/kg oral, 100 mg/kg).

Consider `COC(=O)c1c[nH]c2cc(CN3CCN(c4ccc(C(F)(F)F)cc4)CC3)ccc2c1=O` [8p, Methyl 4-Oxo-7-((4-(4-(trifluoromethyl)phenyl)piperazin-1-yl)-methyl)-1,4-dihydroquinoline-3-carboxylate], for which the “% inhibition day 6 PI” value in experiment [1] is reported as “completely inhibited parasite growth”.

For `COC(=O)c1c[nH]c2cc(CN3CCN(c4ccc(C(F)(F)F)cc4)CC3)c(C)cc2c1=O` [8v, Methyl 6-Methyl-4-oxo-7-((4-(4-(trifluoromethyl)phenyl)-piperazin-1-yl)methyl)-1,4-dihydroquinoline-3-carboxylate], in experiment [1], the “% inhibition day 6 PI” value is “completely inhibited parasite growth”.

In the case of `CCCCc1cc2c(=O)c(C(=O)OCC)c[nH]c2cc1OCCOc1ccccc1` [compound 1], the “radical cure (eradication of dormant exoerythrocytic stages)” value in experiment [3] is given as “radical cures”.

Turning to `CCCCc1cc2c(=O)c(Br)c(C)[nH]c2cc1OCCOc1ccccc1` [compound 2, 3-bromo-6-butyl-2-methyl-7-(2-phenoxyethoxy)quinolin-4(1H)-one], the “resistance index (RI)” value in experiment [4] is listed as 4.7. Besides, the EC50 in experiment [5] is 2.12 nM.

The values above are taken from paper PMC6610884 (Journal of medicinal chemistry, 2018).
